From US20200016200A1, “MODULATING CYTOTOXIC CELL LYTIC GRANULE POSITIONING TO PROMOTE DIFFUSE KILLING IN CELLULAR THERAPIES” (Baylor College of Medicine, priority 2016, published 2020)
Entries after “also recorded” stand apart in the source; their conditions may differ.

What was measured:
NK92 cells = assay: Flow cytometry-based cytotoxicity / bystander killing assay; format: cell-based, human
Experimental: Because directed degranulation with converged granules promoted killing efficiency, ciliobrevin D was used to physically prevent convergence in a cell that had received a convergence signal. It was considered that this would allow us to abrogate the killing efficiency benefit imparted by lytic granule convergence. In order to measure killing of both the target and bystander cells in a single experiment, flow cytometry-based cytotoxicity assays were performed, wherein each cell line was labeled with a unique fluorescent dye in the presence of media containing SYTOX Blue viability indicator dye. […] The viability of YTS ([…]), NK92 (FIG. 14E, 14H) and eNK (FIG. 14F, 14I) was not affected by DMSO or ciliobrevin D treatments. […] To ask if it promoted more collateral damage by NK cells 51Cr-labeled Raji cells were added (to serve as innocent bystanders) along with unlabeled 721.221 or K562 target cells. […] YTS or NK92 cells co-cultured with 51Cr-labeled Raji cells in the absence of 721.221 or K562 were unable to kill Raji cells (FIG. 14J). […] Convergence therefore serves to protect innocent bystander cells in complex cellular environments.
YTS-CD16, NK92-CD16 and eNK cells were labeled with CellTrace CFSE for 10 min at room temperature, washed, and treated with ciliobrevin D or DMSO control as described below in inhibitors. 721.221 and K562 cells were labeled with cell proliferation dye eFluor 670 for 5 min at room temperature. Raji cells were labeled with PKH-26 according to manufacture's protocol. NK cells were then mixed with the corresponding targets and Raji cells at a final volume of 200 μl complete R10 and incubated at 37° C. for 2 hr. Cells were then labeled with SYTOX Blue viability dye for 5 min at room temperature, washed, and run on LSRFortessa flow cytometer (BD).
Where applicable, YTS, NK92 and eNK cells were pretreated with […] ciliobrevin D (Millipore) for 30 min then washed. DMSO was used as the vehicle control for all inhibitor experiments. The inhibitor was also added into the co-culture with target cells.

CD19 CAR-bearing T cells = assay: Live cell confocal microscopy of lytic granule positioning (LysoTracker Red); format: cell-based; details: for stimulation-induced lytic granule convergence: ciliobrevin D 50 μM vs DMSO, straight out of culture or 0.5 h post cytokine (IL-7, IL-15) re-addition
Experimental: (§1) FIG. 17. […] Live cell confocal microscopy of CD19 CAR-bearing T cells untreated or treated with ciliobrevin D (30 and 100 μM). Lytic granule positioning was tracked using LysoTracker Red. […] Quantitative analyses of lytic granule distance from the MTOC are shown as a feature of the degree of granule convergence in CD19 CAR-bearing T cells.
as §1, with “18.” for “17.”, “cells” for “cells untreated or”, “with DMSO or” for “with”, “(50” for “(30 and 100”, “Red. […] The culture medium for CD19 CAR T cells contains IL-7 and IL-15.” for “Red.”
Specifically, the inventors have shown convergence in CD19 CAR T cells, CD19 CAR NK cells, PSCA CAR T cells, GD2 CAR NKT cells, HER2 CART cells, and glypican CAR T cells (FIG. 15A). Using a measurement of mean granule distance from the MTOC, CAR cells have varying degrees of converged lytic granules (FIG. 15B).

CD19 CAR T cells = assay: Standard 4-hour 51Cr cytotoxicity assay, bystander killing; format: cell-based; details: for increase of bystander killing compared to DMSO control: 10:1 effector to target ratio, BV173 bystanders, Daoy-CD19 inciting targets, representative donor
Experimental: FIG. 21. Bystander killing with increasing amounts of ciliobrevin D in the presence of CD19 CAR-bearing T cells. Standard 4-hour ^51Cr cytotoxicity assay of CD19 CAR T cells treated with ciliobrevin D (25, 50 and 100 μM) or DMSO control. CD19-expressing Daoy cells (Daoy-CD19, a medulloblastoma cell line engineered to express CD19) were used as inciting target cells to trigger the activation of CD19 CAR-bearing T cells. BV173 cells, a human acute lymphoblastic leukemia cell line, were used as non-susceptible bystander cells to measure the degree of collateral damage caused by non-directional degranulation.
(§2) Similarly, compared to DMSO, ciliobrevin D-treated CD19 CAR NK cells lyse approximately 24%, 39% and 40% more bystander cells at the concentration of 12.5, 25 and 50 μM, respectively (FIG. 22). […] FIG. 23 and FIG. 24 are time-lapse images of videos of control ([…]) and ciliobrevin D-treated ([…]) CD19 CAR T cells. […] In the control group, however, lytic granules converge immediately upon interacting with the target cell and remain tightly clustered until target is killed by the CD19 CAR T cell as indicated by uptake of the SYTOX Blue viability dye.

GD2 CAR-bearing T cells = assay: Flow cytometry-based cytotoxicity assay, 48 h, bystander killing; format: cell-based; details: ciliobrevin D 90 μM, vs DMSO
Experimental: FIG. 23. Bystander killing with ciliobrevin D in the presence of GD2 CAR-bearing T cells. Flow cytometry-based cytotoxicity assay of GD2 CAR-bearing T cells treated with ciliobrevin D (90 μM) or DMSO control. BV173 cells were used as non-susceptible bystander cells to measure the degree of non-specific killing (Left). Daoy-CD19 cells were used as activating target cells (Right). After 48 h incubation, percent cell lysis and total cell number were measured using SYTOX Blue viability dye and flow cytometer cell counting beads, respectively. […] The non-specific lysis of BV173 cells increased after ciliobrevin D treatment while specific lysis of Daoy-CD19 cells was not affected.
as §2

CD19 CAR T cell = assay: Live cell confocal microscopy of CD19 CAR T cell conjugated with a Daoy-CD19 target cell; format: cell-based
Experimental: FIG. 25. […] Live cell confocal microscopy of a ciliobrevin D-treated CD19 CAR T cell conjugated with a Daoy-CD19 target cell. Cell mixtures were imaged every 90 sec for 60 min. Time point 1 (T1) represents the time when imaging started. Target cell death occurred rapidly at T5 (7.5 min) as indicated by uptake of SYTOX Blue viability dye and loss of adherence. […] Red, LysoTracker Red (lytic granules); blue, SYTOX Blue viability dye; green, CD19 CAR.
as §2

N#CC(C(=O)c1ccc(Cl)cc1Cl)=C1NC(=O)c2ccc(Cl)cc2N1 [ciliobrevin D, 2-(7-chloro-4-oxo-3,4-dihydroquinazolin-2(1H)-ylidene)-3-(2,4-dichlorophenyl)-3-oxopropanenitrile]
viability of NK cells (NK92 cells; NK92, standard cytotoxicity and bystander killing assays): not affected; also recorded: not different | specific lysis of susceptible target cells (NK92 cells; NK92 against K562, Raji bystander cells added, vs DMSO): no change in killing; also recorded: not affected | killing of susceptible target cells (NK92 cells; NK92 against K562, absence of Raji bystander cells, vs DMSO): did not affect killing; also recorded: not affected | non-specific lysis (bystander killing) of Raji cells (NK92 cells; NK92 with K562 inciting targets, vs DMSO): killing of the bystander Raji cells in a dose-dependent manner; also recorded: increased | stimulation-induced lytic granule convergence (CD19 CAR-bearing T cells): blocks stimulation-induced convergence | stimulation-induced lytic granule convergence (CD19 CAR-bearing T cells; listed as Ciliobrevin D): dispersed lytic granules | lytic granule positioning (granule distance from the MTOC) (CD19 CAR-bearing T cells; ciliobrevin D 30 and 100 μM vs untreated): can disperse lytic granules; also recorded: dispersed lytic granules | increase of bystander killing compared to DMSO control (CD19 CAR T cells; 25 μM): approximately 48% | increase of bystander killing compared to DMSO control (CD19 CAR T cells; 50 μM): ~71% | increase of bystander killing compared to DMSO control (CD19 CAR T cells; 100 μM): ~90% | non-specific lysis of BV173 cells (CD19 CAR T cells; 25, 50 and 100 μM, each effector to target ratio, vs DMSO): dose-dependent increases | specific lysis of Daoy-CD19 target cells (GD2 CAR-bearing T cells; 48 h incubation): remains similar to the DMSO control; also recorded: not affected | decrease of total number of BV173 (bystander) cells (GD2 CAR-bearing T cells; after 48 h incubation): ~20% | total number of Daoy-CD19 (target) cells (GD2 CAR-bearing T cells; after 48 h incubation): does not change; also recorded: remained similar to the DMSO control | time of target cell death (SYTOX Blue uptake, loss of adherence) (CD19 CAR T cell; ciliobrevin D-treated CD19 CAR T cell, Daoy-CD19 target): 7.5 min | lytic granule positioning during conjugation and killing (CD19 CAR T cell; ciliobrevin D-treated, imaged every 90 sec for 60 min): dispersedly localized lytic granules throughout the video; also recorded: remained dispersed throughout the video
